Results taken from PMC5218480 (PLoS ONE, 2017).

Test system: MV-4-11 cells
Assay: Gene expression microarray analysis (Affymetrix PrimeView) and GSEA
Format: cell-based, human
Parameters: RFU PODN (11730768_x_at) / Fold change /veh PODN (11730768_x_at) / RFU LINC00158 (11744669_a_at) / Fold change /veh LINC00158 (11744669_a_at) / RFU DUSP10 (11751237_a_at) / Fold change /veh DUSP10 (11751237_a_at) / RFU ID3 (11757404_x_at) / Fold change /veh ID3 (11757404_x_at) / RFU PLEKHG5 (11737974_s_at) / Fold change /veh PLEKHG5 (11737974_s_at) / RFU LRRC4B (11730491_at) / Fold change /veh LRRC4B (11730491_at) / RFU GIMAP4 (11747438_a_at) / Fold change /veh GIMAP4 (11747438_a_at) / RFU KRT8 (11758183_x_at) / Fold change /veh KRT8 (11758183_x_at) / RFU CNN1 (11734310_a_at) / Fold change /veh CNN1 (11734310_a_at) / RFU VPS37D (11726825_at) / Fold change /veh VPS37D (11726825_at) / RFU C10orf10 (11716522_x_at) / Fold change /veh C10orf10 (11716522_x_at) / RFU KIR2DL2 /// KIR2DL4 /// KIR2DL5A /// KIR2DL5B /// KIR2DS1 /// KIR2DS2 /// KIR2DS3 /// KIR2DS4 /// KIR3DL3 /// KIR3DL3 /// KIR3DS1 (11738374_at) / Fold change /veh KIR2DL2 /// KIR2DL4 /// KIR2DL5A /// KIR2DL5B /// KIR2DS1 /// KIR2DS2 /// KIR2DS3 /// KIR2DS4 /// KIR3DL3 /// KIR3DL3 /// KIR3DS1 (11738374_at) / RFU C1QL1 (11718748_at) / Fold change /veh C1QL1 (11718748_at) / RFU TMPRSS4 (11747572_a_at) / Fold change /veh TMPRSS4 (11747572_a_at) / RFU HAMP (11756126_x_at) / Fold change /veh HAMP (11756126_x_at) / RFU RNFT2 (11725882_a_at) / Fold change /veh RNFT2 (11725882_a_at) / RFU NR4A2 (11747474_a_at) / Fold change /veh NR4A2 (11747474_a_at) / RFU ABCC12 (11746883_a_at) / Fold change /veh ABCC12 (11746883_a_at) / RFU TMEM136 (11760407_x_at) / Fold change /veh TMEM136 (11760407_x_at) / RFU CLDN22 /// WWC2 (11732394_at) / Fold change /veh CLDN22 /// WWC2 (11732394_at) / RFU HLA-DPB1 (11760878_x_at) / Fold change /veh HLA-DPB1 (11760878_x_at) / RFU SPINT1 (11716480_a_at) / Fold change /veh SPINT1 (11716480_a_at) / RFU GAP43 (11754022_s_at) / Fold change /veh GAP43 (11754022_s_at) / RFU A4GNT (11735810_at) / Fold change /veh A4GNT (11735810_at) / RFU PRB3 (11715151_x_at) / Fold change /veh PRB3 (11715151_x_at) / RFU TUBB4B (11761932_at) / Fold change /veh TUBB4B (11761932_at) / RFU CAPN14 (11732068_a_at) / Fold change /veh CAPN14 (11732068_a_at) / RFU TMCC2 (11721928_a_at) / Fold change /veh TMCC2 (11721928_a_at) / RFU IRGQ (11745062_a_at) / Fold change /veh IRGQ (11745062_a_at) / RFU FAM174B (11720279_a_at) / Fold change /veh FAM174B (11720279_a_at) / RFU TMPRSS4 (11748680_a_at) / Fold change /veh TMPRSS4 (11748680_a_at) / RFU FAM212B (11763350_a_at) / Fold change /veh FAM212B (11763350_a_at) / RFU PLEKHG5 (11743358_a_at) / Fold change /veh PLEKHG5 (11743358_a_at) / RFU ZSCAN30 (11745921_a_at) / Fold change /veh ZSCAN30 (11745921_a_at) / RFU CMKLR1 (11741424_a_at) / Fold change /veh CMKLR1 (11741424_a_at) / RFU LOC101060620 /// MAPK8IP1 (11723275_at) / Fold change /veh LOC101060620 /// MAPK8IP1 (11723275_at) / RFU SPTSSB (11747773_x_at) / Fold change /veh SPTSSB (11747773_x_at) / RFU PRSS12 (11739890_at) / Fold change /veh PRSS12 (11739890_at) / RFU BIN1 (11741810_x_at) / Fold change /veh BIN1 (11741810_x_at) / RFU WNT11 (11732464_a_at) / Fold change /veh WNT11 (11732464_a_at) / RFU C10orf10 (11716521_a_at) / Fold change /veh C10orf10 (11716521_a_at) / RFU C5orf56 (11738089_at) / Fold change /veh C5orf56 (11738089_at) / RFU CYB561 (11721691_x_at) / Fold change /veh CYB561 (11721691_x_at) / RFU ANKRD19P (11752326_a_at) / Fold change /veh ANKRD19P (11752326_a_at) / RFU OR2T12 /// OR2T33 /// OR2T8 (11738714_s_at) / Fold change /veh OR2T12 /// OR2T33 /// OR2T8 (11738714_s_at) / RFU VCAN (11748164_a_at) / Fold change /veh VCAN (11748164_a_at) / RFU JSRP1 (11732532_at) / Fold change /veh JSRP1 (11732532_at) / RFU KRTAP10-11 (11738290_x_at) / Fold change /veh KRTAP10-11 (11738290_x_at) / RFU MYO3A (11730013_a_at) / Fold change /veh MYO3A (11730013_a_at) / RFU EBF3 (11725865_a_at) / Fold change /veh EBF3 (11725865_a_at) / RFU CAMK2N1 (11719241_x_at) / Fold change /veh CAMK2N1 (11719241_x_at) / RFU C5orf56 (11738088_a_at) / Fold change /veh C5orf56 (11738088_a_at) / RFU OLFML3 (11715873_a_at) / Fold change /veh OLFML3 (11715873_a_at) / RFU LOC100653217 /// NTM (11731650_a_at) / Fold change /veh LOC100653217 /// NTM (11731650_a_at) / RFU MAPK11 (11762145_a_at) / Fold change /veh MAPK11 (11762145_a_at) / RFU FIZ1 (11724087_x_at) / Fold change /veh FIZ1 (11724087_x_at) / RFU OASL (11726364_x_at) / Fold change /veh OASL (11726364_x_at) / RFU SOX15 (11748057_x_at) / Fold change /veh SOX15 (11748057_x_at) / RFU CD79A (11719716_a_at) / Fold change /veh CD79A (11719716_a_at) / RFU HIST1H1D (11736915_at) / Fold change /veh HIST1H1D (11736915_at) / RFU CASKIN2 (11723855_a_at) / Fold change /veh CASKIN2 (11723855_a_at) / RFU LOC730098 (11760151_x_at) / Fold change /veh LOC730098 (11760151_x_at) / RFU OR4N2 (11742367_at) / Fold change /veh OR4N2 (11742367_at) / RFU PRRT2 (11749266_a_at) / Fold change /veh PRRT2 (11749266_a_at) / RFU SNX32 (11753110_a_at) / Fold change /veh SNX32 (11753110_a_at) / RFU CDHR5 (11726645_a_at) / Fold change /veh CDHR5 (11726645_a_at) / RFU RCAN1 (11760418_a_at) / Fold change /veh RCAN1 (11760418_a_at) / RFU FAM167A (11723789_a_at) / Fold change /veh FAM167A (11723789_a_at) / RFU FAM26E (11764081_at) / Fold change /veh FAM26E (11764081_at) / RFU ISYNA1 (11749810_s_at) / Fold change /veh ISYNA1 (11749810_s_at) / RFU ACY1 (11761880_at) / Fold change /veh ACY1 (11761880_at) / RFU 11764098_at / Fold change /veh 11764098_at / RFU SAMD14 (11745864_x_at) / Fold change /veh SAMD14 (11745864_x_at) / RFU NPB (11741838_a_at) / Fold change /veh NPB (11741838_a_at) / RFU TMPRSS6 (11731388_a_at) / Fold change /veh TMPRSS6 (11731388_a_at) / RFU KRTAP10-2 (11738614_at) / Fold change /veh KRTAP10-2 (11738614_at) / RFU ARHGAP8 /// PRR5-ARHGAP8 (11727945_x_at) / Fold change /veh ARHGAP8 /// PRR5-ARHGAP8 (11727945_x_at) / RFU KRTAP5-7 /// NADSYN1 (11734609_at) / Fold change /veh KRTAP5-7 /// NADSYN1 (11734609_at) / RFU RASL12 (11751679_a_at) / Fold change /veh RASL12 (11751679_a_at) / RFU CDKN2B (11736163_a_at) / Fold change /veh CDKN2B (11736163_a_at) / RFU PRF1 (11729649_at) / Fold change /veh PRF1 (11729649_at) / RFU, ZNF638 /// ZNF638-IT1 / Fold change vs veh, ZNF638 /// ZNF638-IT1 / RFU, PANK3 / Fold change vs veh, PANK3 / RFU, SH3YL1 / Fold change vs veh, SH3YL1 / RFU, ZEB2 / Fold change vs veh, ZEB2 / RFU, NRIP1 / Fold change vs veh, NRIP1 / RFU, PTTG1IP / Fold change vs veh, PTTG1IP / RFU, CAPN2 / Fold change vs veh, CAPN2 / RFU, MED14 / Fold change vs veh, MED14 / RFU, SNORA58 / Fold change vs veh, SNORA58 / RFU, C1orf63 / Fold change vs veh, C1orf63 / RFU, LRRFIP1 / Fold change vs veh, LRRFIP1 / RFU, NDUFAF7 / Fold change vs veh, NDUFAF7 / RFU, SLC12A2 / Fold change vs veh, SLC12A2 / RFU, IBTK / Fold change vs veh, IBTK / RFU, ESF1 / Fold change vs veh, ESF1 / Fold change vs veh, TMEM50B / RFU, TAOK1 / Fold change vs veh, TAOK1 / RFU, ACBD3 / Fold change vs veh, ACBD3 / RFU, TMA16 / Fold change vs veh, TMA16 / RFU, RWDD3 / Fold change vs veh, RWDD3 / RFU, BCAT1 / Fold change vs veh, BCAT1 / RFU, EDEM3 / Fold change vs veh, EDEM3 / RFU, TMEM33 / Fold change vs veh, TMEM33 / RFU, WDR75 / Fold change vs veh, WDR75 / RFU, AHCTF1 / Fold change vs veh, AHCTF1 / RFU, TFRC / Fold change vs veh, TFRC / RFU, ZDHHC17 / Fold change vs veh, ZDHHC17 / RFU, NOM1 / Fold change vs veh, NOM1 / RFU, ARL8B / Fold change vs veh, ARL8B / RFU, ZBTB11 / Fold change vs veh, ZBTB11 / RFU, TAMM41 / Fold change vs veh, TAMM41 / RFU, KIAA1704 /// LOC100996395 / Fold change vs veh, KIAA1704 /// LOC100996395 / RFU, ING1 / Fold change vs veh, ING1 / RFU, TRMT61B / Fold change vs veh, TRMT61B / RFU, FUBP3 / Fold change vs veh, FUBP3 / RFU, TP53 / Fold change vs veh, TP53 / RFU, TNKS2 / Fold change vs veh, TNKS2 / RFU, ZFP14 / Fold change vs veh, ZFP14 / RFU, ACTR2 / Fold change vs veh, ACTR2 / RFU, PPP3R1 / Fold change vs veh, PPP3R1 / RFU, PIK3R1 / Fold change vs veh, PIK3R1 / RFU, HNRNPA1 / Fold change vs veh, HNRNPA1 / RFU, RNF170 / Fold change vs veh, RNF170 / RFU, ZNF28 / Fold change vs veh, ZNF28 / RFU, RNGTT / Fold change vs veh, RNGTT / RFU, OGT / Fold change vs veh, OGT / RFU, BRD1 / Fold change vs veh, BRD1 / RFU, MARS / Fold change vs veh, MARS / RFU, ZNF655 / Fold change vs veh, ZNF655 / RFU, FAHD1 / Fold change vs veh, FAHD1 / RFU, BDP1 / Fold change vs veh, BDP1 / RFU, LRRCC1 / Fold change vs veh, LRRCC1 / RFU, ARID1A / Fold change vs veh, ARID1A / RFU, ZNF146 / Fold change vs veh, ZNF146 / RFU, ZNF330 / Fold change vs veh, ZNF330 / RFU, GPN3 / Fold change vs veh, GPN3 / RFU, C9orf123 / Fold change vs veh, C9orf123 / RFU, N4BP2L2 / Fold change vs veh, N4BP2L2 / RFU, ARFIP1 / Fold change vs veh, ARFIP1 / RFU, FAM179B / Fold change vs veh, FAM179B / RFU, BCL10 / Fold change vs veh, BCL10 / RFU, UHRF1BP1L / Fold change vs veh, UHRF1BP1L / RFU, BET1 / Fold change vs veh, BET1 / RFU, CNOT2 / Fold change vs veh, CNOT2 / RFU, ZNF268 / Fold change vs veh, ZNF268 / Fold change vs veh, ZNF507 / RFU, DGCR2 / Fold change vs veh, DGCR2 / RFU, WDSUB1 / Fold change vs veh, WDSUB1 / Fold change vs veh, HSP90B1 /// MIR3652 / RFU, ADSS / Fold change vs veh, ADSS / RFU, GK / Fold change vs veh, GK / RFU, ZNF148 / Fold change vs veh, ZNF148 / RFU, TAF9 / Fold change vs veh, TAF9 / RFU, SLC1A5 / Fold change vs veh, SLC1A5 / RFU, SLMO2 / Fold change vs veh, SLMO2 / RFU, ABCC4 / Fold change vs veh, ABCC4 / RFU, LOC101060439 /// RAP1B / Fold change vs veh, LOC101060439 /// RAP1B / RFU, RFX7 / Fold change vs veh, RFX7 / RFU, GTPBP10 / Fold change vs veh, GTPBP10 / RFU, CNEP1R1 / Fold change vs veh, CNEP1R1 / RFU, BIVM-ERCC5 /// ERCC5 / Fold change vs veh, BIVM-ERCC5 /// ERCC5 / RFU, ILF3 / Fold change vs veh, ILF3 / RFU 11762660_at / Fold change /veh 11762660_at / RFU VCAN (11757783_s_at) / Fold change /veh VCAN (11757783_s_at) / RFU DDX43 (11728927_at) / Fold change /veh DDX43 (11728927_at) / RFU KRT8 (11758188_x_at) / Fold change /veh KRT8 (11758188_x_at) / RFU NKD1 (11759106_at) / Fold change /veh NKD1 (11759106_at) / RFU SRD5A1 (11742802_a_at) / Fold change /veh SRD5A1 (11742802_a_at) / RFU TPSAB1 /// TPSB2 (11721975_s_at) / Fold change /veh TPSAB1 /// TPSB2 (11721975_s_at) / RFU GSTM3 (11746129_a_at) / Fold change /veh GSTM3 (11746129_a_at) / RFU IL23R (11737362_x_at) / Fold change /veh IL23R (11737362_x_at) / RFU TMEM51 (11727254_a_at) / Fold change /veh TMEM51 (11727254_a_at) / RFU PIWIL2 (11732686_x_at) / Fold change /veh PIWIL2 (11732686_x_at) / RFU ORM1 (11744905_x_at) / Fold change /veh ORM1 (11744905_x_at) / RFU CCDC152 (11743942_at) / Fold change /veh CCDC152 (11743942_at) / RFU ECM1 (11717891_a_at) / Fold change /veh ECM1 (11717891_a_at) / RFU IL23R (11748794_a_at) / Fold change /veh IL23R (11748794_a_at) / RFU TNFAIP8L3 (11732012_x_at) / Fold change /veh TNFAIP8L3 (11732012_x_at) / RFU MBOAT4 (11741988_at) / Fold change /veh MBOAT4 (11741988_at) / RFU 11764193_at / Fold change /veh 11764193_at / RFU TMEM53 (11763286_at) / Fold change /veh TMEM53 (11763286_at) / RFU MAGEB2 (11727129_at) / Fold change /veh MAGEB2 (11727129_at) / RFU TMEM200A (11744735_a_at) / Fold change /veh TMEM200A (11744735_a_at) / RFU CCDC152 (11751479_a_at) / Fold change /veh CCDC152 (11751479_a_at) / RFU FAM211A (11726209_a_at) / Fold change /veh FAM211A (11726209_a_at) / RFU RGS16 (11746705_a_at) / Fold change /veh RGS16 (11746705_a_at) / RFU VCAN (11755009_s_at) / Fold change /veh VCAN (11755009_s_at) / RFU RHOB (11743442_s_at) / Fold change /veh RHOB (11743442_s_at) / RFU RGS16 (11720943_a_at) / Fold change /veh RGS16 (11720943_a_at) / RFU RGS16 (11720944_at) / Fold change /veh RGS16 (11720944_at) / RFU, VPS4B / Fold change vs veh, VPS4B / RFU, CREB1 / Fold change vs veh, CREB1 / RFU, DNAJC13 / Fold change vs veh, DNAJC13 / RFU, GNAQ / Fold change vs veh, GNAQ / RFU, CDK5R1 / Fold change vs veh, CDK5R1 / RFU, ZRANB3 / Fold change vs veh, ZRANB3 / RFU, CUL4A / Fold change vs veh, CUL4A / RFU, CCNY / Fold change vs veh, CCNY / RFU, UFL1 / Fold change vs veh, UFL1 / RFU, COG3 / Fold change vs veh, COG3 / RFU, DIAPH2 / Fold change vs veh, DIAPH2 / RFU, SKA2 / Fold change vs veh, SKA2 / RFU, AFF3 / Fold change vs veh, AFF3 / RFU, LMF1 / Fold change vs veh, LMF1 / RFU, IPO11 / Fold change vs veh, IPO11 / RFU, DFFB / Fold change vs veh, DFFB / RFU, FOXP1 / Fold change vs veh, FOXP1 / RFU, CARD8 / Fold change vs veh, CARD8 / RFU, STRN3 / Fold change vs veh, STRN3 / RFU, ADK / Fold change vs veh, ADK / RFU, RASSF2 / Fold change vs veh, RASSF2 / RFU, WIPF1 / Fold change vs veh, WIPF1 / RFU, LARP1B / Fold change vs veh, LARP1B / RFU, RASA1 / Fold change vs veh, RASA1 / RFU, RB1 / Fold change vs veh, RB1 / RFU, PPFIA1 / Fold change vs veh, PPFIA1 / RFU, MAT2A / Fold change vs veh, MAT2A / RFU, CCT5 / Fold change vs veh, CCT5 / RFU, WDR92 / Fold change vs veh, WDR92 / RFU, CUX1 / Fold change vs veh, CUX1 / RFU, TTC7A / Fold change vs veh, TTC7A / RFU, TMEM135 / Fold change vs veh, TMEM135 / RFU, DEPTOR / Fold change vs veh, DEPTOR / RFU, CPM / Fold change vs veh, CPM / RFU, DNAJB6 / Fold change vs veh, DNAJB6 / RFU, CACNA2D3 / Fold change vs veh, CACNA2D3 / RFU, DTX4 / Fold change vs veh, DTX4 / RFU, TFCP2 / Fold change vs veh, TFCP2 / RFU, GMCL1 /// GMCL1P1 / Fold change vs veh, GMCL1 /// GMCL1P1 / RFU, AEBP2 / Fold change vs veh, AEBP2 / RFU, SNHG1 /// SNORD22 /// SNORD25 /// SNORD26 /// SNORD27 /// SNORD28 /// SNORD29 /// SNORD31 / Fold change vs veh, SNHG1 /// SNORD22 /// SNORD25 /// SNORD26 /// SNORD27 /// SNORD28 /// SNORD29 /// SNORD31 / Fold change (Aza/veh), C12orf56 (ProbeSet 11735607_a_at) / Fold change (ACY-1035/veh), C12orf56 (ProbeSet 11735607_a_at) / Fold change (Aza/veh), FGFR1OP (ProbeSet 11751329_s_at) / Fold change (ACY-1035/veh), FGFR1OP (ProbeSet 11751329_s_at) / Fold change (Aza/veh), VPS36 (ProbeSet 11739960_a_at) / Fold change (ACY-1035/veh), VPS36 (ProbeSet 11739960_a_at) / RFU SYPL1 (11715823_x_at) / Fold change /veh SYPL1 (11715823_x_at) / RFU IGFBP7 (11715501_s_at) / Fold change /veh IGFBP7 (11715501_s_at) / RFU REEP3 (11722064_at) / Fold change /veh REEP3 (11722064_at) / RFU IGLL1 (11728026_x_at) / Fold change /veh IGLL1 (11728026_x_at): dose or concentration left out as unconfirmed
Settings: MV-4-11 cells, 48 hours

Q: `Nc1ccc(-c2cccs2)cc1NC(=O)c1ccc2c(c1)cc(C1CC1)n2CCN1CCOCC1` [ACY-1035] was tested. Which “Fold change /veh ISYNA1 (11749810_s_at)” value did it give?
A: 0.96
